The values below come from publication PMC7321065, “Discovery of New Schiff Bases Tethered Pyrazole Moiety: Design, Synthesis, Biological Evaluation, and Molecular Docking Study as Dual Targeting DHFR/DNA Gyrase Inhibitors with Immunomodulatory Activity” (Molecules, 2020).

≈ marks a conversion by molar mass, not a printed value. Like-named read-outs stand apart in the source and are kept apart here. Where only a bound is given, the exact number is not on record here.

For one test, the system named is Vero cells (ATCC CCL-81). The test can be described thus: Cytotoxicity on normal cells, MTT assay. Type of test: cell-based, African green monkey. To be noted: MTT, healthy non-cancer cells, read-out: IC50 Vero. On the procedure: 3-[4, 5-Dimethyl-2-thiazolyl)-2, 5-diphenyl-2 H-tetrazolium bromide (MTT) protocol is based on the cleavage of the tetrazolium salt by mitochondrial dehydrogenases in viable cells. Cells were dispensed in a 96 well sterile microplate (5 x 10^4 cells/well), and incubated at 37 °C with series of different concentrations, in DMSO, of each tested compound or Doxorubicin ® (positive control) for 48 h in a serum free medium prior to the MTT assay. After incubation, media were carefully removed, 40 µL of MTT (2.5 mg/mL) were added to each well and then incubated for an additional 4 h. The purple formazan dye crystals were solubilized by the addition of 200 µL of DMSO. The absorbance was measured at 590 nm using a SpectraMax® Paradigm® Multi-Mode microplate reader. The relative cell viability was expressed as the mean percentage of viable cells compared to the untreated control cells.
All experiments were conducted in triplicate and repeated in three different days. All the values were represented as mean ± SD. IC 50s were determined by probit analysis using SPSS software program (SPSS
(In general: Tetrazolium assays rely on reduction of a dye to a coloured formazan, in cell work by metabolically active cells.)

Test [1] deals with P. aeruginosa ATCC BAA-2111. As to the kind of experiment: Inhibition zone against MDRB, agar plate diffusion. Type of test: cell-based.
Another test relates to Fusarium oxysporum. As to the kind of experiment: MIC/MFC, paper disk diffusion. Type of test: cell-based. To be noted: F. oxysporum; for MFC / MIC: Fusarium oxysporum; for MFC: read-out: MFC; for MIC: read-out: MIC. In a few lines:
(§1)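 MIC and MBC were obtained by paper disk diffusion, bacteria grown on nutrient agar and fungi/yeast on Sabouraud agar. MIC is the lowest concentration inhibiting growth.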
(Agar diffusion results depend on both activity and mobility in agar.)

The next test has as its system Candida albicans. As to the kind of experiment: MIC/MFC, paper disk diffusion. Type of test: cell-based. To be noted: for MIC / MFC: Candida albicans; for MFC: read-out: MFC. In a few lines: as §1
The subject of another test is E. coli ATCC BAA-196. The test can be described thus: Inhibition zone against MDRB, agar plate diffusion. Type of test: cell-based.
The next test relates to S. aureus ATCC 33591. As to the kind of experiment: Inhibition zone against MDRB, agar plate diffusion. Type of test: cell-based.
In test [2] the test system is hepatocellular carcinoma cell line (HepG2). As to the kind of experiment: Antiproliferative activity, MTT assay. Type of test: cell-based, human. Conditions: Homo sapiens, HepG2; MTT, 48 h; read-out: IC50 HepG-2. In outline: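 MTT added for 4 h, formazan dissolved in DMSO, absorbance at 590 nm. Viability relative to untreated cells; IC50 by probit analysis.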
A further test relates to Enterococcus faecalis. The test can be described thus: Inhibition zone, agar plate diffusion. Type of test: cell-based. Conditions: Ef, mm ± standard deviation, sample at 0.5 mg/mL, read-out: Inhibition zone (IZ). In outline:
(§2)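 Compounds in DMSO, with DMSO as negative control, were tested at 0.5 mg/mL in agar wells cut 10 mm wide.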

Another test has as its system Pseudomonas aeruginosa. As to the kind of experiment: Inhibition zone, agar plate diffusion. Conditions: Pa, mm ± standard deviation, sample at 0.5 mg/mL, read-out: Inhibition zone (IZ). Type of test: cell-based. In a few lines:
as §2

The next test has as its system Bacillus subtilis. The test can be described thus: Inhibition zone, agar plate diffusion. Type of test: cell-based. To be noted: Bs, mm ± standard deviation, sample at 0.5 mg/mL, read-out: Inhibition zone (IZ). In outline:
as §2

The next test has as its system Escherichia coli. As to the kind of experiment: Inhibition zone, agar plate diffusion. Type of test: cell-based. Conditions: Ec, mm ± standard deviation, sample at 0.5 mg/mL, read-out: Inhibition zone (IZ). In outline:
as §2

In the case of `COc1ccc(Nc2n[nH]c(N=Cc3ccc(N4CCCCC4)cc3)c2C(N)=O)cc1` [8a, 3-(p-Methoxyphenylamino)-5-(4-(piperidin-1-yl)benzylideneamino)-1H-pyrazole-4-carboxamide], the IC50 with Vero cells (ATCC CCL-81) (Chlorocebus sabaeus, Vero) is more than 120 µM; with Vero cells (ATCC CCL-81), 120.5 ± 0.34 µM; in [2] it was 2.25 ± 0.85 µM. The “Mean Diameter of Inhibition Zone against MDRB” value came out at 27 ± 0.54 mm in test [1], 25 ± 0.46 mm with E. coli ATCC BAA-196 and 24 ± 0.12 mm in the test with S. aureus ATCC 33591. Further, the “Fold activity in comparison with Amphotericin B (MIC)” value in the test with Fusarium oxysporum and with Candida albicans (C. albicans) was 2 fold in each case. Further, the results for the MFC in the test on Fusarium oxysporum and in the test with Candida albicans (C. albicans) were 27.8 µg/mL (≈ 66.4 µM) and 15.6 µg/mL (≈ 37.3 µM), respectively. Besides, the results for the MIC with Fusarium oxysporum and with Candida albicans were 15.6 µg/mL (≈ 37.3 µM) and 7.81 µg/mL (≈ 18.7 µM), respectively. The zone of inhibition at 500 µg/mL in the test on Enterococcus faecalis amounted to 25 ± 0.33 mm; in the test with Pseudomonas aeruginosa, 25 ± 0.85 mm; in the test on Bacillus subtilis, 27 ± 0.5 mm; in the test with Escherichia coli, 23 ± 0.14 mm.
Regarding `COc1ccc(Nc2n[nH]c(N=Cc3cc(OC)c(OC)c(OC)c3)c2C(=O)Nc2ccccc2)cc1` [9b, 3-(p-Methoxyphenylamino)-N-phenyl-5-(3,4,5-trimethoxybenzylideneamino)-1H-pyrazole-4-carboxamide], the IC50 was more than 120 µM in the test on Vero cells (ATCC CCL-81) (Chlorocebus sabaeus, Vero); 195.9 ± 0.57 µM in the test on Vero cells (ATCC CCL-81); 1.92 ± 0.49 µM in test [2]. Also, the figures for the “Mean Diameter of Inhibition Zone against MDRB” value (in test [1]; in the test on E. coli ATCC BAA-196; in the test on S. aureus ATCC 33591) were 24 ± 0.88 mm, 22 ± 0.2 mm and 25 ± 0.12 mm, respectively. Further, the “Fold activity in comparison with Amphotericin B (MIC)” value with Fusarium oxysporum and with Candida albicans (C. albicans) was 2 fold throughout. Besides, the figures for the MFC in the test on Fusarium oxysporum and in the test on Candida albicans (C. albicans) were 26.6 µg/mL (≈ 52.9 µM) and 12.5 µg/mL (≈ 24.9 µM), respectively. Besides, the MIC is 15.6 µg/mL (≈ 31.1 µM) with Fusarium oxysporum and 7.81 µg/mL (≈ 15.6 µM) in the test with Candida albicans (C. albicans, read-out: MIC). The zone of inhibition at 500 µg/mL with Enterococcus faecalis stood at 24 ± 0.35 mm; with Pseudomonas aeruginosa, 21 ± 0.55 mm; in the test on Bacillus subtilis it was 25 ± 0.87 mm; in the test on Escherichia coli it was 23 ± 0.2 mm.

By IC50 is commonly meant the concentration needed to halve the response being measured. As a reminder, the MIC is the lowest concentration found to suppress growth.
